Data as given in patent US7745420B2, “Methods for increasing in vivo efficacy of oligonucleotides and inhibiting inflammation in mammals” (Topigen Pharmaceutique, Inc., priority 2001, dated 2010).
[DAP] = 2,6-diaminopurine base replacing adenine; [I] = hypoxanthine (inosine)

Key:
rat model of asthma [1] = assay: Leukotriene D4 responsiveness after antigen (ovalbumin) challenge; type: in vivo; conditions: 200 μg intratracheal, 15 hours after ovalbumin challenge; for airway responsiveness to leukotriene D4: vs control challenged and DAP mismatch treated rats
Method: (§1) Active sensitization of rats was performed by subcutaneous injection of 1 ml of saline containing 1 mg of chicken egg ovalbumin (OA) (Sigma, St. Louis, Mo.) and 3.5 mg of aluminum hydroxide gel (BDH Chemicals, Poole, UK).
(§2) The equipment and methodology for measuring pulmonary resistance was as previously described (Renzi, P. M., et al. Am. Rev. Respir. Dis 146: 163-169, 1992). General anesthesia was induced with either pentothal (50 mg/kg) or urethane (1.1 g/kg) intra-peritoneally. Endo-tracheal intubation was then performed using a 6 cm length of PE-240™ polyethylene catheter. A heating pad was used to maintain constant body temperature and rectal temperature was monitored continuously with an electronic thermometer (Telethermometer™, Yellow Springs Instrument Co., Yellowsprings, Ohio). Lung resistance (RL) was measured during spontaneous tidal breathing with the animals in the lateral decubitus position. Flow was measured by placing the tip of the tracheal tube inside a small Plexiglass™ box (265 ml in volume). A Fleish™ No. 0 pneumotachograph coupled to a differential pressure transducer (MP-45+2 cm H20; Validyne Corp, Northridge, Calif.) was attached to the other end of the box to measure airflow, and volume was obtained by numerical integration of the flow signal. Changes in esophageal pressure were measured by using a saline-filled catheter and a differential pressure transducer (Sanborn 267 BC™; Hewlett Packard, Waltham, Mass.). The other port of the transducer was connected to the box. The esophageal catheter consisted of polyethylene tubing (PE-200™) 20-cm long attached to a shorter length (6 cm) of tubing (PE-100™). Transpulmonary pressure was computed as the difference between esophageal and box pressure. The airway response was evaluated from RL, which was determined by fitting the equation of motion of the lung by multiple linear regression using commercial software (RHT-Infodat Inc., Montreal, Quebec, Canada).
We have previously shown that the antisense ASA4 (5′-ACTCATATTC ATAGGGTG-3′; SEQ ID NO:26) directed against the rat CCR3 receptor was effective at inhibiting eosinophil influx into the lungs after antigen challenge (see WO 99/66037). We employed the same oligonucleotide sequences for these experiments. […] After 15 hours, the rats were again intubated after general anesthesia, baseline lung resistance measured and doubling concentrations of leukotriene D4 injected intratracheally (50 ng to 1600 ng) until baseline lung resistance doubled (EC200).

rat model of asthma [2] = assay: Cellular influx into the lungs after antigen challenge (lung lavage differential cell count); type: in vivo; conditions: 200 μg intratracheal before ovalbumin challenge; for inhibition of recruitment of eosinophils: bronchoalveolar lavage after 15 hours
Method: as §1
On day 14 after sensitization with ovalbumin, after general anesthesia with 65 mg/Kg pentothal and endotracheal intubation, ovalbumin challenge is performed by injecting 200 micrograms of ovalbumin in 60 μl intratracheally. After 8 hours or 15 hours, the rats are again intubated after general anesthesia and a lung lavage consisting of 5 times 5 ml instillation of 0.9% saline is performed. Cells are washed, counted and centrifuged onto slides in a Cytospin III™. A differential cell count is performed.
On day 14, the rats were intubated after general anesthesia with pentothal (65 mg/kg) and received 200 μg of ASA4, ASA4-DAP (5′-DapCTCDapTDapTTCDapTDapGGGTG-3′; SEQ ID NO:27), AS141-DAP (5′-TGGCDapCTTTDapGGTGGCTG-3′; SEQ ID NO:29), mismatch AS141-DAP (5′-GTGCCDapTTTGDapGTGGCTG-3′; SEQ ID NO:30), combination of ASA4-DAP and AS141-DAP (total of 100 μg) or saline in 50 μl of 0.9% NaCl intratracheally. Twenty minutes later ovalbumin challenge is performed by injecting 200 μg of ovalbumin in 50 μl of 0.9% saline intratracheally. After 15 hours, the rats were again intubated after general anesthesia, and a lung lavage consisting of 5 times 5 ml instillation was performed. Cells were washed, counted and centrifuged onto slides in a Cytospin III™. A differential cell count was finally performed.

rat model of asthma [3] = conditions: see WO 99/66037; cited from earlier work
[4] = tested on: sensitized Brown Norway rats; assay: Airway responsiveness (lung resistance) to intratracheal adenosine, DAP nucleoside and DAP analogs; type: in vivo, rat
Method: as §1, §2
On day 14 post-sensitization, rats were anesthetized with pentothal (65 mg/kg), intubated, and baseline RL was measured. Rats were given incremental doses intratracheally of adenosine (CAS 58-61-7), 2,6-diaminopurine hemisulfate salt (CAS 69369-16-0), DAP (2-amino-2-deoxyadenosine; CAS 4546-70-7), 2-amino-9-(B-D-2′-deoxyribo furanosyl)purine (CAS 3616-24-8), 7-Deaza-2′deoxyadenosine (CAS 60129-59-1), N6-Methyl-2′-deoxyadenosine (CAS 2002-35-9), 2-aminoadenosine/2,6-diamunopurine riboside (CAS 2096-10-08) over the dose range of 0.125 μg to 100 μg in 50 μl of either saline or saline plus acetic acid. Immediately after each dose RL was measured. DAP was dissolved as follows: 3 mg of DAP was combined with 100 μl of acetic acid, adjusted to 1.5 to 3 ml by the addition of saline, and heated to 70° C. This gave a final concentration of 1 to 2 μg/μl. Dilutions were performed in the same buffer. Control animals received saline with acetic acid at the same final concentration as indicated.

[5] = tested on: sensitized but unchallenged Brown Norway rats; assay: Cellular influx into the lungs after adenosine or DAP administration; type: in vivo, rat
Method: Fourteen days after sensitization, the rats were intubated after anesthesia with pentothal 65 mg/kg, and 100 μg of adenosine or 2-amino-2′-deoxyadenosine or of 2-amino-2′deoxyadenosine followed 10 minutes later by adenosine or of saline was injected intratracheally in 50 μl. Fifteen hours later, the rats were intubated after general anesthesia with pentothal, and a lung lavage was performed and the cells were counted as described above.
In another experiment, groups of six sensitized but unchallenged Brown Norway rats were anesthetized with pentothal and endotracheally intubated. The rats then received an intratracheal injection of either (1) saline (control), (2) 100 μg of adenosine, (3) 100 μg of 2-amino-2′-deoxyadenosine (DAP) or (4) 100 μg of DAP followed by 100 μg of adenosine 10 minutes later. The rats were awakened, re-anesthetized and intubated 15 hours later for a lung lavage. Cells that were present in media collected from the lavage, were counted and a differential was obtained on Cytospin∩ slides.

[6] = tested on: common Beta chain of human GM-CSF, IL-3 and IL-5 receptor; assay: Semi-quantitative RT-PCR of common beta chain mRNA in U937 cells treated with antisense; type: cell-based; conditions: 10 μmol, six hours, compared to AS107
Method: Experiments were performed to assess whether antisense oligonucleotides described in international application WO 99/66037 (incorporated herein) directed against the common beta sub-unit of the IL-3, IL-5 and GM-CSF receptor, could inhibit the expression and the function of this receptor when modified by replacing adenosine by either 2-amino-2′-deoxyadenosine or inosine. TF-1 and U937 cells express high levels of GM-CSF receptors. In addition, TF-1 cells are dependent on GM-CSF for survival. These cells were cultured in RPMI 1640 supplemented with 10% heat-inactivated fetal calf serum, penicillin, streptomycin and 1-glutamine at 37° C. in 5% CO2 (the TF-1 cells were supplemented with GM-CSF). […] The sequence for 107A-DAP was: 5′-GGGTCTGCDapGCGGGDapTGGT-3′ (SEQ ID NO:21); the sequence for 107A-inosine (107A-I) was: 5′-GGGTCTGCIGCGGGIT GGT-3′ (SEQ ID NO:22). The cells were retrieved and washed 3 times. RNA was then retrieved and the presence of the beta chain of the receptor was assessed by semi-quantitative RT-PCR.

[7] = at peak adenosine toxicity (5 μg)
[8] = at 5 fold lower concentration (1 μg)
[9] = 100 μg intratracheal, lung lavage 15 hours later

Compound: 5′-TGGCACTTTAGGTGGCTG-3′ (phosphorothioate backbone, further chemistry not given here) [AS141]
- airway responsiveness to leukotriene D4 (rat model of asthma [1]): decreased significantly
- lymphocyte recruitment (rat model of asthma [2]; lavage after 15 hours): significant decrease
- macrophage recruitment (rat model of asthma [2]; lavage after 15 hours): significant decrease
- neutrophil recruitment (rat model of asthma [2]; lavage after 15 hours): strong trends for decreases
- recruitment of eosinophils (rat model of asthma [2]; lavage after 15 hours): effectively inhibited
- inhibition of the eosinophil influx that occurs after antigen challenge (rat model of asthma [3]): inhibit the eosinophil influx

Compound: 5′-TGGCDapCTTTDapGGTGGCTG-3′ (antisense TGGCNCTTTNGGTGGCTG; diaminopurine (Dap) replaces adenosine at two places, sugar and backbone not given here, further chemistry not given here) [AS141-DAP]
- macrophage recruitment (rat model of asthma [2]; lavage after 15 hours): significantly decreased
- recruitment of eosinophils (rat model of asthma [2]; lavage after 15 hours): effectively inhibited

Compound: CNc1ncnc2c1ncn2[C@H]1C[C@H](O)[C@@H](CO)O1 [N6-Methyl-2′deoxyadenosine, N6-methyl-2′-deoxyadenosine]
- relative toxicity ranking (lung resistance) [4, 7]: adenosine>N6-Methyl-2′deoxyadenosine>rest including DAP

Compound: Nc1nc(N)c2ncn([C@H]3C[C@H](O)[C@@H](CO)O3)c2n1 [DAP, 2-amino-2-deoxyadenosine]
- inhibition of eosinophil recruitment induced by adenosine ([5]; 100 μg DAP followed by 100 μg adenosine 10 minutes later, lavage 15 hours later): completely inhibits the recruitment of eosinophils
- relative toxicity ranking (lung resistance) [4, 8]: adenosine>2 amino-2 deoxyadenosine/DAP>rest
- relative toxicity ranking (lung resistance) [4, 7]: adenosine>N6-Methyl-2′deoxyadenosine>rest including DAP
- effect on lung resistance (% baseline) after intratracheal dosing ([4]; incremental doses 0.125 μg to 100 μg intratracheal, sensitized rats): does not significantly increase lung resistance

Compound: 5′-DapCTCDapTDapTTCDapTDapGGGTG-3′ (antisense NCTCNTNTTCNTNGGGTG; DNA, [DAP] at 1, 5, 7, 11, 13, all phosphorothioate, methylation of C not given here) [ASA4-DAP]
- airway responsiveness to leukotriene D4, compared to unchallenged rats (rat model of asthma [1]): no different
- airway responsiveness to leukotriene D4, compared to unmodified ASA4 (rat model of asthma [1]): tended to be more effective
- airway responsiveness to leukotriene D4 (rat model of asthma [1]): significantly decreased
- inhibition of recruitment of eosinophils (rat model of asthma [2]): 83%
- decrease of lymphocyte recruitment (rat model of asthma [2]; lavage after 15 hours): 74%
- macrophage recruitment (rat model of asthma [2]; lavage after 15 hours): tended to decrease
- neutrophil recruitment (rat model of asthma [2]; lavage after 15 hours): tended to decrease

Compound: 5′-ACTCATATTC ATAGGGTG-3′ (antisense ACTCATATTCATAGGGTG; DNA, all phosphorothioate, methylation of C not given here) [ASA4]
- inhibition of recruitment of eosinophils (rat model of asthma [2]): 84%
- lymphocyte recruitment (rat model of asthma [2]; lavage after 15 hours): significant decrease
- macrophage recruitment (rat model of asthma [2]; lavage after 15 hours): strong trends for decreases
- neutrophil recruitment (rat model of asthma [2]; lavage after 15 hours): strong trends for decreases
- inhibition of the eosinophil influx that occurs after antigen challenge (rat model of asthma [3]): inhibit the eosinophil influx

Compound: Nc1ncnc2c1ncn2[C@@H]1O[C@H](CO)[C@@H](O)[C@H]1O [adenosine, reference compound]
- effect on other cell types in lung lavage [5, 9]: without significantly affecting other cell types
- increase of eosinophil recruitment into the lungs [5, 9]: more than 10 fold
- relative toxicity ranking (lung resistance) [4, 8]: adenosine>2 amino-2 deoxyadenosine/DAP>rest
- relative toxicity ranking (lung resistance) [4, 7]: adenosine>N6-Methyl-2′deoxyadenosine>rest including DAP
- dose at which lung resistance peaks ([4]; incremental intratracheal doses, sensitized rats): 5 µg

Compound: 5′-GGGTCTGCIGCGGGIT GGT-3′ (DNA GGGTCTGCNGCGGGNTGGT; DNA, [I] at 9, 15, backbone and methylation of C not given here) [AS107-I, reference compound]
- inhibiting mRNA expression, semi-quantitative PCR [6]: not effective
